Measured values from EP0609460A1, “PHARMACEUTICAL AGENT WITH A[…]” (KISLYAKOVA, Nonna Dmitrievna, priority 1992, dated 1994).

What was measured:
[1] = test system: mammalian cancer cells; conditions: in vitro, cited from earlier work
[2] = test system: hormone-susceptible DMBA-induced mammary gland cancer tumors; assay: DMBA-induced hormone-susceptible mammary gland cancer in female rats, daily oral treatment; type: in vivo
[3] = test system: DMBA-induced mammary gland cancer; conditions: cited from earlier work; for per cent of complete regression (disappearance of tumor) / per cent of partial decrease of tumors / tumors which did not regress at all / per cent of general regression of all tumors: after 30 days of administration; for per cent of general regression of all tumors: oil solutions, about 15 mg/kg
[4] = test system: hormone-susceptible malignant tumors in women; assay: Clinical use in volunteer patients; conditions: long-term (up to 2 months) administration in low doses
Protocol: The duration of the course - 2 months.
The daily dose (with the patient's weight about 70 kg) consisted of 3 g DL-valine in combination with 25 mg (0.025 g or 5 tablets) methyltestosterone. The daile dose was divided into 3 single ones (1 g DL-valine in warm milk enterally and 1 tablet of methyltestosterone sublingually 3 times daily - on an empty stomach and before meals; and 1 tablet of methyltestosterone without DL-valine sublingually 2 times in the middle of the day before meals). The patient strictly observed the diet with the excess of protein, limited amount of carbohydrates and complete exclusion of animal fat and phospholipids (fish hard-roe, egg yolk), using no more than 1-2 table spoonfuls of vegetable oil daily.

[5] = test system: induced mammary gland cancer; assay: Induced mammary gland cancer in rats, long-term growing tumors with lost androgen susceptibility (Table 1); type: in vivo, White random-bred rats

CC(C)C(N)C(=O)O (racemic) [DL-valine]
damage of non-malignant cells [1]: without any damage
cytotoxic effect on mammalian cancer cells ([1]; compared with other DL-amino acids): the strongest cytotoxic effect
regression effect ([2]; DL-valine 275 mg/kg in the mixture): disappears completely
optimal dose of DL-valine ([2]; in the mixture): 550 mg/kg

CCC(=O)O[C@H]1CC[C@H]2[C@@H]3CCC4=CC(=O)CC[C@]4(C)[C@H]3CC[C@]12C [testosterone propionate]
per cent of complete regression (disappearance of tumor) [3]: 10%
per cent of partial decrease of tumors [3]: 30%
tumors which did not regress at all [3]: 60%
per cent of general regression of all tumors [3]: 40%

CCC(=O)O[C@H]1CC[C@H]2[C@@H]3CC[C@H]4CC(=O)[C@H](C)C[C@]4(C)[C@H]3CC[C@]12C [2α-methyldihydrotestosterone propionate]
per cent of complete regression (disappearance of tumor) [3]: 50%
per cent of partial decrease of tumors [3]: 20%
tumors which did not regress at all [3]: 30%
per cent of general regression of all tumors [3]: 70%

C[C@]12CCC(=O)C=C1CC[C@@H]1[C@@H]2CC[C@@]2(C)[C@H]1CC[C@]2(C)O [methyltestosterone]
minimal effective dose ([2]; Rattus norvegicus, po, without DL-valine, read-out: dose from which methyltestosterone alone causes regression): ≥ 25 mg/kg
antiblastic effect alone, without DL-valine ([2]; nontherapeutic doses 5-10 mg/kg): cause no regression or even inhibition of the growth
better dose of methyltestosterone in combination with DL-valine ([2]; tumor sizes over 6.0 cm³ up to 8-10 cm³): 10 mg/kilo body weight
dose of methyltestosterone giving the optimal antiblastic effect in combination with DL-valine ([2]; tumors of 4.0 cm³ to 6.0 cm³): 5 mg per kilo body weight
experimental therapeutic dose ([3]; administered orally): 25-40 mg/kg per day
side effects [4]: weak manifestations of virilism

C[C@]12C=CC(=O)C=C1CC[C@@H]1[C@@H]2CC[C@@]2(C)[C@H]1CC[C@]2(C)O [methandrostenolone]
optimal dose of methandrostenolone in mixture with DL-valine ([5]; long-term growing tumors 10 cm³ or larger): 20-25 mg/kg body weight

C[C@@H]1C[C@@]2(C)[C@@H](CC[C@@H]3[C@@H]2CC[C@]2(C)[C@@H](O)CC[C@@H]32)CC1=O [2α -methyldihydrotestosterone]
per cent of complete regression (disappearance of tumor) [3]: 20%
per cent of partial decrease of tumors [3]: 60%
tumors which did not regress at all [3]: 20%
per cent of general regression of all tumors [3]: 80%

COc1cc(C=NNC(=O)c2ccncc2)ccc1O [phthivazid]
optimal dose of phthivazid ([5]; with DL-valine and methandrostenolone, found empirically): 45-50 mg/kg body weight
